Consider 30 compounds from patent publication US20120065187A1 (ALCON RESEARCH, LTD, priority 2008, published 2012).

Usually EC50 stands for the concentration giving half of the maximal effect.

Counter-ions that a name gives are not always drawn.

The target of one experiment is T1, human H4 (Homo sapiens, UniProt Q9H3N8).
T1 construct: host or cells: CHO-K1
Put plainly: In vitro histamine receptor cell-based assay (aequorin bioluminescence), H4 antagonism. The note with it: CHO-K1 cells expressing human H4, aequorin and Gα16; histamine at EC80; read-out: H4 Antagonist EC50. How it is done: (§1) The cell-based assays utilize an aequorin dependent bioluminescence signal. Doubly-transfected, stable CHO-K1 cell lines expressing human H1 or H4, mitochondrion-targeted aequorin, and (H4 only) human G protein Gα16 are obtained from Perkin-Elmer. Cells are maintained in F12 (Ham's) growth medium, containing 10% (vol./vol.) fetal bovine serum, penicillin (100 IU/mL), streptomycin (0.1 mg/mL), zeocin (0.25 mg/mL) and geneticin (0.40 mg/mL). Cell media components are from Invitrogen, Inc. One day prior to assay, the growth medium is replaced with the same, excluding zeocin and geneticin.
(§2) For assay preparation, growth medium is aspirated, and cells are rinsed with calcium-free, magnesium-free phosphate-buffered saline, followed by two to three minute incubation in Versene (Invitrogen, Inc.) at 37° C. Assay medium (DMEM:F12 [50:50], phenol-red free, containing 1 mg/mL protease-free bovine serum albumin) is added to collect the released cells, which are then centrifuged. The cell pellet is re-suspended in assay medium, centrifuged once more, and re-suspended in assay medium to a final density of 5×10^6 cells/mL. Coelenterazine-h dye (500 μM in ethanol) is added to a final concentration of 5 μM, and mixed immediately. The conical tube containing the cells is then wrapped with foil to protect the light-sensitive dye. The cells are incubated for four hours further at room temperature (approximately 21° C.) with end-over-end rotation to keep them in suspension.
Just before assay, the dye-loaded cells are diluted to 0.75×10^6 cells/mL (H1 receptor) or 1.5×10^6 cells/mL (H4 receptor) with additional assay medium. Cells are dispensed to 1536 well micro-titer plates at 3 μL/well. To assay receptor antagonism, 60 nl of 100× concentration test compounds in 100% dimethyl sulfoxide (DMSO) are dispensed to the wells, one compound per well, by passive pin transfer, and the plates are incubated for 15 minutes at room temperature. […] The pipette dispenses 3 μL/well of agonist (histamine, at twice the final concentration, where final concentration is a previously determined EC80) in assay medium, with concurrent bioluminescence detection. Agonist activity of test compounds is excluded by separate assays that measure response to test compounds immediately, without added histamine agonist.
(§3) CCD image capture on the Lumilux includes a 5 second baseline read prior to agonist addition, and generally a 40 second read per plate after agonist addition. A decrease in bioluminescence signal (measured either as area-under-the-curve, or maximum signal amplitude minus minimum signal amplitude) correlates with receptor antagonism in a dose dependent manner. The negative control is DMSO lacking any test compound. For antagonist assays, the positive controls are diphenhydramine (2-Diphenylmethoxy-N,N-dimethylethylamine, 10 μM final concentration, H1 receptor) or JNJ7777120 (1-[(5-Chloro-1H-indol-2-yl)carbonyl]-4-methyl-piperazine, 10 μM final concentration, H4 receptor). Efficacy is measured as a percentage of positive control activity.

In another experiment the target is T2, human H1 (Homo sapiens, UniProt P35367).
T2 construct: host or cells: CHO-K1
T2 sequence (P35367 whole entry): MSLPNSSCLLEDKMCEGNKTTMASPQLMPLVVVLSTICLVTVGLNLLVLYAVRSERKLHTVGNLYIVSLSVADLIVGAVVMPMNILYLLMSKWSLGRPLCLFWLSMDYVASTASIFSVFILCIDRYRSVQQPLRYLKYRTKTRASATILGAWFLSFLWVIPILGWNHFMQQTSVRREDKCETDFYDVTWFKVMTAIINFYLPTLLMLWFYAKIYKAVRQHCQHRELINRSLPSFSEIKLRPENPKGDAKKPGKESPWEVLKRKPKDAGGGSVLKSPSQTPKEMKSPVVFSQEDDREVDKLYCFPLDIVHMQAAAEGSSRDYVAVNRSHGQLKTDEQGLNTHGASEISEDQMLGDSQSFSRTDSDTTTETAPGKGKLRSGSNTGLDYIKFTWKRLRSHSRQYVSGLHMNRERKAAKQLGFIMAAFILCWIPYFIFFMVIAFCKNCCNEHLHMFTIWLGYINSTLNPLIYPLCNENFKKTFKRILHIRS
Put plainly: In vitro histamine receptor cell-based assay (aequorin bioluminescence), H1 antagonism. The note with it: CHO-K1 cells expressing human H1 and aequorin; histamine at EC80; read-out: H1 Antagonist EC50. How it is done:
as §1, §2
Just before assay, the dye-loaded cells are diluted to 0.75×10^6 cells/mL (H1 receptor) or 1.5×10^6 cells/mL (H4 receptor) with additional assay medium. Cells are dispensed to 1536 well micro-titer plates at 3 μL/well. To assay receptor antagonism, 60 nl of 100× concentration test compounds in 100% dimethyl sulfoxide (DMSO) are dispensed to the wells, one compound per well, by passive pin transfer, and the plates are incubated for 15 minutes at room temperature. Assay plates are then transferred to a Lumilux bioluminescence plate reader (Perkin-Elmer) equipped with an automated 1536 disposable tip pipette. The pipette dispenses 3 μL/well of agonist (histamine, at twice the final concentration, where final concentration is a previously determined EC80) in assay medium, with concurrent bioluminescence detection. Agonist activity of test compounds is excluded by separate assays that measure response to test compounds immediately, without added histamine agonist.
as §3

T1 sequence (Q9H3N8 whole entry): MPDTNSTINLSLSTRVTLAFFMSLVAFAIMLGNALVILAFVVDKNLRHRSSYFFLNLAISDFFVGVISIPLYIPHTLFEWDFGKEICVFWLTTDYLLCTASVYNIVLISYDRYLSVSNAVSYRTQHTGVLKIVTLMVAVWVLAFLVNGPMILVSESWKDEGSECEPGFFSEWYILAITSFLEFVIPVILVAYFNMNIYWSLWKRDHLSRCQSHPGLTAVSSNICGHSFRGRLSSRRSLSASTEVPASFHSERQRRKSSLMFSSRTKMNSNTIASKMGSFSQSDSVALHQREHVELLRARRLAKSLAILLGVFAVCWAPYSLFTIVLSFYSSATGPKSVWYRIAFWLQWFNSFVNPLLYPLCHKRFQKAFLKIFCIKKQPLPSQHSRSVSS

For `Clc1ccc2nc(C3=CCNCC3)c3nncn3c2c1` [Example 1, 8-chloro-4-(1,2,3,6-tetrahydropyridin-4-yl)-[1,2,4]triazolo[4,3-a]quinoxaline], the EC50 at human H4 and on human H1 was above 10 µM each time.

Regarding `CN1CC=C(c2nc3ccc(Cl)cc3n3cnnc23)CC1` [Example 2, 8-Chloro-4-(1-methyl-1,2,3,6-tetrahydropyridin-4-yl)-[1,2,4]triazolo[4,3-a]quinoxaline], the EC50 at human H4 was below 10 µM; on human H1, above 10 µM.

In the case of `Clc1ccc2nc(C3CCNCC3)c3nncn3c2c1` [Example 3, 8-Chloro-4-(piperidin-4-yl)-[1,2,4]triazolo[4,3-a]quinoxaline], the EC50 on human H4 and at human H1 was above 10 µM in each case.

Regarding `CN1CCC(c2nc3ccc(Cl)cc3n3cnnc23)CC1` [Example 4, 8-Chloro-4-(1-methylpiperidin-4-yl)-[1,2,4]triazolo[4,3-a]quinoxaline], the EC50 at human H4 was below 10 µM; at human H1, above 10 µM.

`CN1CCN(C2=Nc3ccc(Cl)cc3N3CCN=C23)CC1` [Example 5, 8-Chloro-4-(4-methylpiperazin-1-yl)-1,2-dihydroimidazo[1,2-a]quinoxaline]: the EC50 on human H4 was below 10 µM; at human H1 it was above 10 µM.

On to `Clc1ccc2c(c1)N1CCN=C1C(N1CCNCC1)=N2` [Example 6, 8-Chloro-4-(piperazin-1-yl)-1,2-dihydroimidazo[1,2-a]quinoxaline], for which the EC50 at human H4 was below 10 µM; at human H1 it was above 10 µM.

As for `Clc1ccc2nc(N3CCNCC3)c3nccn3c2c1` [Example 8, 8-Chloro-4-(piperazin-1-yl)imidazo[1,2-a]quinoxaline], the values for the EC50 on human H4 and at human H1 were below 10 µM and above 10 µM, respectively.

Regarding `Cc1cn2c(n1)c(N1CCN(C)CC1)nc1ccc(Cl)cc12` [Example 9, 8-Chloro-2-methyl-4-(4-methylpiperazin-1-yl)imidazo[1,2-a]quinoxaline], the EC50 on human H4 is below 10 µM; at human H1 it was above 10 µM.

Turning to `Cc1cn2c(n1)c(N1CCNCC1)nc1ccc(Cl)cc12` [Example 10, 8-Chloro-2-methyl-4-(piperazin-1-yl)imidazo[1,2-a]quinoxaline], the EC50 on human H4 and on human H1 was above 10 µM each time.

Turning to `Cc1cn2c(n1)c(N1CCN(C)CC1)nc1cc(Cl)ccc12` [Example 11, 7-Chloro-2-methyl-4-(4-methylpiperazin-1-yl)imidazo[1,2-a]quinoxaline], the values for the EC50 on human H4 and on human H1 were below 10 µM and above 10 µM, respectively.

`Clc1ccc2nc(N3CCNCC3)n3nnnc3c2c1` [Example 12, 9-Chloro-5-(piperazin-1-yl)tetrazolo[1,5-c]quinazoline]: the EC50 was below 10 µM at human H4 and above 10 µM at human H1.

In the case of `CN1CCN(c2nc3ccc(Cl)cc3c3nnnn23)CC1` [Example 13, 9-chloro-5-(4-methylpiperazin-1-yl)tetrazolo[1,5-c]quinazoline], the EC50 at human H4 was below 10 µM; at human H1, above 10 µM.

As to `CN1CCN(c2nc3ccc(Cl)cc3c3nncn23)CC1` [Example 14, 9-chloro-5-(4-methylpiperazin-1-yl)-[1,2,4]triazolo[4,3-c]quinazoline], the EC50 at human H4 was above 10 µM; on human H1, below 10 µM.

In the case of `Cc1ccc2nc(N3CCN(C)CC3)c3nnnn3c2c1` [Example 15, 8-methyl-4-(4-methylpiperazin-1-yl)tetrazolo[1,5-a]quinoxaline], the EC50 at human H4 is below 10 µM; at human H1 it was above 10 µM.

Consider `Clc1ccc2c(c1)nc(N1CCNCC1)c1nnnn12` [Example 16, 7-Chloro-4-(piperazin-1-yl)tetrazolo[1,5-a]quinoxaline], for which the EC50 on human H4 was below 10 µM; on human H1 it was above 10 µM.

As for `CN1CCN(c2nc3cc(Cl)ccc3n3nnnc23)CC1` [Example 17, 7-Chloro-4-(4-methylpiperazin-1-yl)tetrazolo[1,5-a]quinoxaline], the EC50 on human H4 is below 10 µM; at human H1, above 10 µM.

With `Cc1ccc2nc(N3CCNCC3)c3nnnn3c2c1` [Example 18, 8-Methyl-4-(piperazin-1-yl)tetrazolo[1,5-a]quinoxaline], the figures for the EC50 at human H4 and at human H1 were below 10 µM and above 10 µM, respectively.

On to `Cc1ccc2nc(N3CCNCC3)c3nncn3c2c1` [Example 22, 8-Methyl-4-(piperazin-1-yl)-[1,2,4]triazolo[4,3-a]quinoxaline], for which the values for the EC50 at human H4 and on human H1 were below 10 µM and above 10 µM, respectively.

For `CN1CCN(c2nc3cc(C(F)(F)F)ccc3n3cnnc23)CC1` [Example 25, 4-(4-methylpiperazin-1-yl)-7-(trifluoromethyl)-[1,2,4]triazolo[4,3-a]quinoxaline], the EC50 at human H4 was below 10 µM; at human H1, above 10 µM.

Regarding `FC(F)(F)c1ccc2c(c1)nc(N1CCNCC1)c1nncn12` [Example 26, 4-(piperazin-1-yl)-7-(trifluoromethyl)-[1,2,4]triazolo[4,3-a]quinoxaline], the EC50 at human H4 and on human H1 was above 10 µM each time.

Regarding `CN1CCN(c2nc3cc(C(F)(F)F)ccc3n3nnnc23)CC1` [Example 28, 4-(4-methylpiperazin-1-yl)-7-(trifluoromethyl)tetrazolo[1,5-a]quinoxaline], the EC50 on human H4 is below 10 µM; at human H1 it was above 10 µM.

Consider `FC(F)(F)c1ccc2c(c1)nc(N1CCNCC1)c1nnnn12` [Example 30, 4-(piperazin-1-yl)-7-(trifluoromethyl)tetrazolo[1,5-a]quinoxaline hydrochloride], for which the results for the EC50 on human H4 and on human H1 were below 10 µM and above 10 µM, respectively.

For `CN1CCN(c2nc3cc(Cl)c(F)cc3n3cnnc23)CC1` [Example 33, 7-chloro-8-fluoro-4-(4-methylpiperazin-1-yl)-[1,2,4]triazolo[4,3-a]quinoxaline], the values for the EC50 at human H4 and on human H1 were below 10 µM and above 10 µM, respectively.

Regarding `Cc1cc2c(cc1F)nc(N1CCN(C)CC1)c1nncn12` [Example 34, 7-fluoro-8-methyl-4-(4-methylpiperazin-1-yl)-[1,2,4]triazolo[4,3-a]quinoxaline], the EC50 on human H4 is below 10 µM; at human H1, above 10 µM.

As to `Cc1cc2c(cc1F)nc(N1CCNCC1)c1nncn12` [Example 35], the EC50 on human H4 and at human H1 was above 10 µM each time.

With `Cc1cc2nc(N3CCN(C)CC3)c3nncn3c2cc1F` [Example 36, 8-fluoro-7-methyl-4-(4-methylpiperazin-1-yl)-[1,2,4]triazolo[4,3-a]quinoxaline], the EC50 at human H4 is below 10 µM; at human H1, above 10 µM.

For `Fc1cc2nc(N3CCNCC3)c3nncn3c2cc1F` [Example 38, 7,8-difluoro-4-(piperazin-1-yl)-[1,2,4]triazolo[4,3-a]quinoxaline], the EC50 on human H4 is below 10 µM; on human H1, above 10 µM.

Regarding `CN1CCN(c2nc3cc(C(F)(F)F)c(F)cc3n3cnnc23)CC1` [Example 42, 8-fluoro-4-(4-methylpiperazin-1-yl)-7-(trifluoromethyl)-[1,2,4]triazolo[4,3-a]quinoxaline], the concentration giving a half-maximal response (EC50) is below 10 µM on human H4 and above 10 µM on human H1.

For the compound `Fc1cc2c(cc1C(F)(F)F)nc(N1CCNCC1)c1nncn12` [Example 43, 8-Fluoro-4-(piperazin-1-yl)-7-(trifluoromethyl)-[1,2,4]triazolo[4,3-a]quinoxaline], the EC50 at human H4 is below 10 µM; at human H1 it was above 10 µM.

`FC(F)(F)c1ccc2nc(N3CCNCC3)c3nocc3c2c1` [Example 219, 4-piperazinyl-8-(trifluoromethyl)isoxazolo[3,4-c]quinoline]: on human H1, the EC50 was above 10 µM.
